In patent publication US8759482B2, “Kinetically efficient substrate for lipoic acid ligase” (Massachusetts Institute of Technology, priority 2009, dated 2014):

How the values were obtained:
[1] = molecular target: T1, Escherichia coli lipoic acid ligase (Lp1A) (Escherichia coli, UniProt P32099); experiment: Lp1A-catalyzed lipoylation kinetics (kcat, Km) by HPLC; assay type: biochemical; settings: estimated, based on HPLC measurements
T1 sequence (P32099 1-338): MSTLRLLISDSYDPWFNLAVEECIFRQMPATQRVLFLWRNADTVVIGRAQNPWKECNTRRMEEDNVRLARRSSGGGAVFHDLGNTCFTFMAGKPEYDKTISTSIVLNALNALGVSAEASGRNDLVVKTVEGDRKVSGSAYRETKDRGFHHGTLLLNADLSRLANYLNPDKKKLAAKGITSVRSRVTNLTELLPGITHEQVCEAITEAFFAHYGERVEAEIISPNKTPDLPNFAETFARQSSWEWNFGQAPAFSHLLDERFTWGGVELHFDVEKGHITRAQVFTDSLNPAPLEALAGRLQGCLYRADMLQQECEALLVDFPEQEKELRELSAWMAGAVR
Protocol: Various concentrations of synthetic LAP2 peptide (not a fusion protein) were lipoylated with 50 nM Lp1A, 750 μM lipoic acid, and 3 mM ATP, and initial reaction rates were measured by HPLC. […] Measurements were performed in triplicate.
Using HPLC to quantify product formation, the kcat and Km values were measured for Lp1A-catalyzed lipoylation of a synthetic LAP2 peptide (without an attached fusion protein).
To measure the kcat and Km values for lipoylation, 50 nM Lp1A was combined with 750 μM lipoic acid, 2 mM ATP, and 5 mM magnesium acetate in DPBS. Varying concentrations of LAP2 (5.5, 11, 22, 44, 88, 176, or 352 μM) were used; 60 μL aliquots were removed from the 30° C. reactions at 5 min intervals, up to 20 min, and quenched with 180 mM EDTA (final concentration). HPLC was used to determine the amount of product in each aliquot, and kinetic parameters were extracted using the Michaelis-Menten equation as described previously.^13,28

Lp1A [2] = molecular target: T2, Lp1A (Escherichia coli, UniProt P32099); experiment: Cell surface lipoylation of CFP-TM fusion constructs on mammalian cells; assay type: cell-based; settings: HEK cells, CFP-TM fusions, 1 μM Lp1A, 10 min
Protocol: FIG. 8 depicts cell surface lipoylation of LAP4.3 vs. LAP4.3D. HeLa cells expressing either LAP4.3-CFP-TM or LAP4.3D-CFP-TM were lipoylated with 1 μM Lp1A for 10 minutes. Lipoylation was detected with Alexa568-conjugated anti-lipoic acid antibody.
However, expression levels of intracellular proteins are similar, whether fused to a LAP sequence or E2p. […] Scale bar, 10 μm. […] Single cell mean fluorescein/CFP intensity ratios were tabulated for >160 cells from >18 fields of view.
Second, the LAPs were compared in a cell surface lipoylation assay (FIG. 9). CFP-TM fusion constructs were expressed in human embryonic kidney 293 (HEK) cells, and lipoylation was carried out by purified Lp1A enzyme added to the media. After 10 min of labeling, lipoylated cell surface proteins were imaged using antilipoic acid antibody. […] To quantitatively compare the labeling efficiencies of all the LAP sequences, lipoylation signal (as measured by antibody staining intensity) was plotted against CFP signal for single cells.

Lp1AW37A = Lp1AW37A (Escherichia coli, UniProt P32099, W38A); settings: HEK cells, Lp1AW37A and 11-Br 5 min, QD605-HaloTag 5 min
Protocol: QD605 emission is shown in the top row. Merged GFP and DIC (differential interference contrast) images are shown in the bottom row. Negative controls are shown with ATP or Lp1A omitted. Scale bars, 10 μm.
HEK 293T cells were transfected with LAP2-GFP-LDLR plasmid using Lipofectamine 2000. After 24 h in growth media (Dulbecco's Modified Eagle Medium (DMEM) with 10% fetal bovine serum (FBS)) at 37° C., enzymatic ligation of 11-Br was performed in DPBS containing 10 μM Lp1A(W37A), 500 μM 11-Br, 1 mM ATP, 5 mM Mg(OAc)2 and 1% (w/v) BSA (Fraction V, EMD) as a blocking agent for 5 min at room temperature. Cells were then rinsed three times with DPBS followed by treatment with 50 nM HaloTag-QD60531 in DPBS containing 1% BSA for 5 min at room temperature. After another three rinses with DPBS, cells were imaged in the same buffer on a Zeiss Axio Observer.Z1 inverted epifluorescence microscope using a 40X oil-immersion lens. […] Fluorescence images were normalized to the same intensity ranges.

Lp1A [3] = molecular target: T2, Lp1A; settings: Azide 7 probe; cited from earlier work

Chain of Lp1AW37A (P32099 whole entry W38A): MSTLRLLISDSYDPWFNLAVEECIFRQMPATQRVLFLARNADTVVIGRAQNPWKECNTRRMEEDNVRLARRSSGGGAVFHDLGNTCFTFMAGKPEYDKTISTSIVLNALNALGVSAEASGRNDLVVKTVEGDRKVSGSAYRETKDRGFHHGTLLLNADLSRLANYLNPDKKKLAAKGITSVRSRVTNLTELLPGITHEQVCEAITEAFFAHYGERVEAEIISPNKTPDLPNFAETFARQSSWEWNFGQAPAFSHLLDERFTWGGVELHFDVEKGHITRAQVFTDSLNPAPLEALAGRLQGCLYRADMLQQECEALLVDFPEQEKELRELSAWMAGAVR

DEVLVEIETDKAVLEVPGGEEE [LAP1]
Km [1]: > 200 µM
cell surface lipoylation (antilipoic acid antibody imaging) (Lp1A [2]): labeling was not detected
QD605 labeling at the cell surface (Lp1AW37A): undetectable
kcat for Azide 7 ligation (Lp1A [3]): 0.048 s⁻¹
